Experimental data taken from patent publication US9187424B1, “Aryl dihydropyridinones and piperidinone MGAT2 inhibitors” (Bristol-Myers Squibb Company, priority 2011, dated 2015).

Molecular target: Human MGAT-2 (Homo sapiens (Human), UniProt Q3SYC2)
Test: MGAT LCMS Assay (human MGAT-2);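 further: diolein product quantified by LC/MS with positive APCI, expressed as peak area ratio versus an internal standard, and this ratio used to derive IC50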
Format: biochemical
Details: human MGAT-2 membranes expressed in Sf9 cells; 2-oleoylglycerol and oleoyl-Coenzyme A; read-out: h-MGAT2 IC50 (nM) LCMS Assay

Chain of Human MGAT-2 (Q3SYC2 whole entry): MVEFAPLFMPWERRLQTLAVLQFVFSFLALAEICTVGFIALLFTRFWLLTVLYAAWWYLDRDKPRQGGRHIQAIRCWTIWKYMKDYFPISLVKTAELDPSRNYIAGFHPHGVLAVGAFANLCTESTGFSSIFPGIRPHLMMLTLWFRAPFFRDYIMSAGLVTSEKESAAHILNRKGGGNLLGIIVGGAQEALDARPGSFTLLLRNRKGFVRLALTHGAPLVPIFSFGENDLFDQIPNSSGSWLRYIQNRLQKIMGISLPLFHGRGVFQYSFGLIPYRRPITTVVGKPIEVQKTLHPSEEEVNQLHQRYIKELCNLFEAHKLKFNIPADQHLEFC

SMILES | IC50 [nM]
CCNC(=O)NC1=C(c2ccc(OCC(F)F)cc2)CC(c2ccc(OCCCC(F)(F)F)cc2)(C(F)(F)F)NC1=O (centres unmarked) [Example 254] | 170
CCNC(=O)NC1=C(c2ccc(C)cc2)CC(c2ccc(OCCCC(F)(F)F)cc2)(C(F)(F)F)NC1=O (centres unmarked) [Example 255] | 702
Cc1ccc(C2=C(C#N)C(=O)NC(c3ccc(OCCCC(F)(F)F)cc3)(C(F)(F)F)C2)cc1F (centres unmarked) [Example 256] | 22
COOCNc1ccc(C2=C(C#N)C(=O)NC(c3ccc(OCCCC(F)(F)F)cc3)(C(F)(F)F)C2)cc1 (centres unmarked) [Example 257] | 421
COc1ccc(C2=C(C#N)C(=O)NC(c3ccc(OCCCC(F)(F)F)cc3)(C(F)(F)F)C2)cc1Cl (centres unmarked) [Example 258] | 1150
Cc1ccc(C2=C(C#N)C(=O)NC(c3ccc(OCCCC(F)(F)F)cc3)(C(F)(F)F)C2)cc1Cl (centres unmarked) [Example 259] | 15
COCc1ccc(C2=C(C#N)C(=O)NC(c3ccc(OCCCC(F)(F)F)cc3)(C(F)(F)F)C2)cc1 (centres unmarked) [Example 260] | 56
N#CC1=C(c2ccc(OC(F)(F)F)c(F)c2)CC(c2ccc(OCCCC(F)(F)F)cc2)(C(F)(F)F)NC1=O (centres unmarked) [Example 261] | 1220
COc1cc(C2=C(C#N)C(=O)NC(c3ccc(OCCCC(F)(F)F)cc3)(C(F)(F)F)C2)ccc1C (centres unmarked) [Example 262] | 96
CCOc1ccc(C2=C(C#N)C(=O)NC(c3ccc(OCCCC(F)(F)F)cc3)(C(F)(F)F)C2)cc1Cl (centres unmarked) [Example 263] | 103
CCOc1ccc(C2=C(C#N)C(=O)NC(c3ccc(OCCCC(F)(F)F)cc3)(C(F)(F)F)C2)cc1F (centres unmarked) [Example 264] | 46
Cc1ccc(C2=C(c3nn[nH]n3)C(=O)NC(c3cccc(OCCCC(F)(F)F)c3)(C(F)(F)F)C2)cc1 (centres unmarked) [Example 267] | 796
O=C1NC(c2ccc(OCCCC(F)(F)F)cc2)(C(F)(F)F)CC(c2ccc(CC(F)(F)F)cc2)=C1c1nn[nH]n1 (centres unmarked) [Example 271] | 12
O=C1NC(c2ccc(OCCCCCC(F)(F)F)cc2F)(C(F)(F)F)CC(c2ccc(OC(F)F)cc2)=C1c1nn[nH]n1 (centres unmarked) [Example 274] | 1
O=C1NC(c2ccc(OCCCC(F)(F)F)cc2)(C(F)(F)F)CC(c2ccc(OC(F)F)cc2)=C1NC(=O)c1ccncc1 (centres unmarked) [Example 275] | 2
O=C1NC(c2ccc(OCCCCCC(F)(F)F)cc2F)(C(F)(F)F)CC(c2ccc3ccccc3c2)=C1c1nn[nH]n1 (centres unmarked) [Example 276] | 2
O=C1NC(c2ccc(OCCCC(F)(F)F)cc2F)(C(F)(F)F)CC(c2ccc(CC3CC3)cc2)=C1c1nn[nH]n1 (centres unmarked) [Example 277] | 2
Cc1ccc(C2=C(c3nn[nH]n3)C(=O)NC(c3ccc(OCCCCC(F)(F)F)cc3F)(C(F)(F)F)C2)cc1 (centres unmarked) [Example 278] | 2
Cc1ccc(C2=C(NC(=O)CS(C)(=O)=O)C(=O)NC(c3ccc(OCc4ccccc4)cc3)(C(F)(F)F)C2)cc1 (centres unmarked) [Example 279] | 2
O=C(Nc1cccnc1)C1=C(c2ccc(OC(F)F)cc2)CC(c2ccc(OCCCC(F)(F)F)cc2)(C(F)(F)F)NC1=O (centres unmarked) [Example 280] | 2
Cc1ccc(C2=C(C(=O)Nc3cc(C)no3)C(=O)NC(c3ccc(OCCCC(F)(F)F)cc3)(C(F)(F)F)C2)cc1 (centres unmarked) [Example 281] | 3
CCOP(=O)(CC(=O)NC1=C(c2ccc(C)cc2)CC(c2ccc(OCCCC(F)(F)F)cc2)(C(F)(F)F)NC1=O)OCC (centres unmarked) [Example 282] | 3
CCOc1ccc(C2=C(c3nn[nH]n3)C(=O)NC(c3ccc(OCCCCCC(F)(F)F)cc3F)(C(F)(F)F)C2)cc1 (centres unmarked) [Example 283] | 3
O=C1NC(c2ccc(OCCCCCC(F)(F)F)cc2F)(C(F)(F)F)CC(c2ccc(CC(F)(F)F)cc2)=C1c1nn[nH]n1 (centres unmarked) [Example 284] | 4
Cc1ccc(C2=C(c3nn[nH]n3)C(=O)NC(c3ccc(OCCC4CC4)cc3)(C(F)(F)F)C2)cc1 (centres unmarked) [Example 285] | 4
Cc1ccc(C2=C(c3nn[nH]n3)C(=O)NC(c3ccc(OCCCC(F)(F)F)cc3)(C(F)(F)F)C2)c(F)c1 (centres unmarked) [Example 286] | 4
